According to patent US5710151A, “Method of treating urinary bladder dysfunctions” (priority 1996, dated 1998):
Where a name gives a salt, the structure may show the parent alone.

molecular target: muscarinic receptors; test: inhibition of binding of 3H-oxotremorine-M to muscarinic receptors; settings: 3 nM 3H-oxotremorine-M, rat cerebral cortical membranes, pH 7.4, 15 min, 25° C.; read-out: Inhibition of ^3 H-Oxo
Procedure: The affinity of the compounds for the muscarinic receptors was determined using the non-selective agonist ligand, ^3 H-oxotremorine-M. Birdsdall N. J. M., Hulme E. C., and Burgen A. S. V. "The Character of Muscarinic Receptors in Different Regions of the Rat Brain", 207 Proc. Roy. Soc. 1 (London, Series B, 1980). Each compound was tested to determine the affinity of the compound for the muscarinic receptors using the following procedure.
For in vitro binding, male Sprague-Dawley (Harlan Sprague-Dawley, Indianapolis, Ind.) rats weighing from about 100 to about 150 grams each were sacrificed by decapitation. The brains were quickly removed and the cerebral cortex were dissected from the brain. The cerebral cortex tissue was homogenized in 10 volumes of 0.32M sucrose and […] at about 1000×g. The supernatant was centrifuged at about 12,000×g for about 10 minutes and the resulting pellet was resuspended in 20 mM tris-Cl, pH 7.4. The resuspended pellet was centrifuged again for about 10 minutes at about 50,000×g. The resulting homogenate was preincubated for about 10 minutes at about 25° C. and centrifuged again for about 10 minutes at about 50,000×g. The pellet was resuspended at 1 gram of pellet per 3 ml of buffer and frozen at about -80° C. until used.
The inhibition of binding of ^3 H-oxotremorine-M to muscarinic receptors was determined by mixing the compound of the Example, 3 nM ^3 H-oxotremorine-M (about 87 Ci/mmoles, New England Nuclear, Boston Mass.), and cerebral cortical membranes equivalent to about 10 mg wet weight, which is about 100 μg of cortical membrane protein, in about 1 ml total volume of […] tris-Cl buffer, pH 7.4, containing 1 mM MnCl2. The aforementioned homogenates mixture was incubated for about 15 minutes at about 25° C. and then the homogenates were filtered through glass filters (Whatman, GF/C) with vacuum. The filters were washed 3 times with about 2 ml of cold tris-Cl buffer, and placed in scintillation vials containing about 10 ml of scintillation fluid (Ready Protein+, Beckman, Fullerton, Calif.). Radioactivity trapped on the filters was determined by liquid scintillation spectrometry. Nonspecific binding was determined using 1 μM atropine. The concentration of compound required to inhibit specific binding 50% (IC50) was determined using standardized computer assisted calculations (DeLean, A. et al. Am. J. Physiol., 235, (1978)).

| SMILES | IC50 |
| --- | --- |
| CCOc1nsnc1[C@@H]1CN2CCC[C@@H]1C2 (relative stereo) [Compound 19, Exo-6-(3-ethoxy-1,2,5-thiadiazol-4-yl)-1-azabicyclo[3.2.1]octane oxalate] | 1.2 nM |
| CCCCCCSc1nsnc1[C@@H]1CN2CCC[C@@H]1C2 (relative stereo) [Compound 29, Exo-6-(3-hexylthio-1,2,5-thiadiazol-4-yl)-1-azabicyclo[3.2.1]octane oxalate] | 1.2 nM |
| CCCCSc1nsnc1[C@@H]1CN2CCC[C@@H]1C2 (relative stereo) [Compound 30, Exo-6-(3-butylthio-1,2,5-thiadiazol-4-yl)-1-azabicyclo[3.2.1]octane oxalate] | 0.4 nM |
| CCCCCSc1nsnc1[C@@H]1CN2CCC[C@@H]1C2 (relative stereo) [Compound 31, Exo-6-(3-pentylthio-1,2,5-thiadiazol-4-yl)-1-azabicyclo[3.2.1]octane oxalate] | 1.8 nM |
| CCSc1nsnc1[C@@H]1CN2CCC[C@@H]1C2 (relative stereo) [Compound 32, Exo-6-(3-ethylthio-1,2,5-thiadiazol-4-yl)-1-azabicyclo[3.2.1]octane oxalate] | 1.3 nM |
| CCCSc1nsnc1[C@@H]1CN2CCC[C@@H]1C2 (relative stereo) [Compound 58, Exo-6-(3-propylthio-1,2,5-thiadiazol-4-yl)-1-azabicyclo[3.2.1]octane oxalate] | 0.8 nM |
| CCCCCOc1nsnc1[C@@H]1CN2CCC[C@@H]1C2 (relative stereo) [Compound 59, Exo-6-(3-pentyloxy-1,2,5-thiadiazol-4-yl)-1-azabicyclo[3.2.1]octane oxalate] | 1 nM |
| CSc1nsnc1[C@@H]1CN2CCC[C@@H]1C2 (relative stereo) [Compound 74, Exo-6-(3-methylthio-1,2,5-thiadiazol-4-yl)-1-azabicyclo[3.2.1]octane oxalate] | 1.4 nM |
| CC(C)CCCSc1nsnc1[C@@H]1CN2CCC[C@@H]1C2 (relative stereo) [Compound 76, Exo-6-(3-isohexylthio-1,2,5-thiadiazol-4-yl)-1-azabicyclo[3.2.1]octane oxalate] | 7.7 nM |
| CC(C)CCSc1nsnc1[C@@H]1CN2CCC[C@@H]1C2 (relative stereo) [Compound 77, Exo-6-(3-isopentylthio-1,2,5-thiadiazol-4-yl)-1-azabicyclo[3.2.1]octane] | 2.7 nM |
| N#Cc1ccc(CSc2nsnc2[C@@H]2CN3CCC[C@@H]2C3)cc1 (relative stereo) [Compound 82, Exo-6-(3-(4-cyanobenzylthio)-1,2,5-thiadiazol-4-yl)-1-azabicyclo[3.2.1]octane oxalate] | 1.3 nM |
| CCCOc1nsnc1[C@@H]1CN2CCC[C@@H]1C2 (relative stereo) [Compound 119, Exo-6-(3-propoxy-1,2,5-thiadiazol-4-yl)-1-azabicyclo[3.2.1]octane oxalate] | 0.9 nM |
| CCCCOc1nsnc1[C@@H]1CN2CCC[C@@H]1C2 (relative stereo) [Compound 120, Exo-6-(3-butoxy-1,2,5-thiadiazol-4-yl)-1-azabicyclo[3.2.1]octane oxalate] | 0.9 nM |
| CCCCCCOc1nsnc1[C@@H]1CN2CCC[C@@H]1C2 (relative stereo) [Compound 122, Exo-6-(3-hexyloxy-1,2,5-thiadiazol-4-yl)-1-azabicyclo[3.2.1]octane oxalate] | 2.1 nM |
| c1ccc(OCCSc2nsnc2[C@@H]2CN3CCC[C@@H]2C3)cc1 (relative stereo) [Compound 133, Exo-6-(3-(2-phenoxyethylthio)-1,2,5-thiadiazol-4-yl)-1-azabicyclo[3.2.1]octane oxalate] | 1.3 nM |
| CCCCSc1nsnc1C1CN2CCC1CC2 (single isomer, unassigned) [Compound 56, (+) 3-(3-Butylthio-1,2,5-thiadiazol-4-yl)-1-azabicyclo[2.2.2]octane (-)D-tartrate] | 0.4 nM |

| SMILES | IC50 |
| --- | --- |
| CCOc1nsnc1C1CN2CCC1CC2 (centres unmarked) [Compound 9, 3-(3-Ethoxy-1,2,5-thiadiazol-4-yl)-1-azabicyclo[2.2.2]octane fumarate] | 2.1 nM |
| CCCCSc1nsnc1C1CN2CCC1CC2 (centres unmarked) [Compound 13, 3-(3-Butylthio-1,2,5-thiadiazol-4-yl)-1-azabicyclo[2.2.2]octane fumarate] | 1.9 nM |
| CCCCOc1nsnc1C1CN2CCC1CC2 (centres unmarked) [Compound 46, 3-(3-Butoxy-1,2,5-thiadiazol-4-yl)-1-azabicyclo[2.2.2]octane oxalate] | 1.6 nM |
| CCSc1nsnc1C1CN2CCC1CC2 (centres unmarked) [Compound 52, 3-(3-Ethylthio-1,2,5-thiadiazol-4-yl)-1-azabicyclo[2.2.2]octane oxalate] | 1.8 nM |
| CCCSc1nsnc1C1CN2CCC1CC2 (centres unmarked) [Compound 53, 3-(3-Propylthio-1,2,5-thiadiazol-4-yl)-1-azabicyclo[2.2.2]octane oxalate] | 0.9 nM |
| c1ccc(OCCSc2nsnc2C2CN3CCC2CC3)cc1 (centres unmarked) [Compound 102, 3-(3-(2-Phenoxyethylthio)-1,2,5-thiadiazol-4-yl)-1-azabicyclo[2.2.2]octane fumarate] | 4.5 nM |
| N#CCSc1nsnc1C1CN2CCC1CC2 (centres unmarked) [Compound 103, 3-(3-Cyanomethylthio-1,2,5-thiadiazol-4-yl)-1-azabicyclo[2.2.2]octane oxalate] | 2.7 nM |
| c1csc(CCCSc2nsnc2C2CN3CCC2CC3)c1 (centres unmarked) [Compound 104, 3-(3-(3-(2-Thienyl)propylthio)-1,2,5-thiadiazol-4-yl)-1-azabicyclo[2.2.2]octane fumarate] | 2.6 nM |
| Cn1nnnc1SCCCCSc1nsnc1C1CN2CCC1CC2 (centres unmarked) [Compound 106, 3-(3-(1-Methyltetrazol-5-ylthio)butylthio-1,2,5-thiadiazol-4-yl)-1-azabicylo[2.2.2]octane oxalate] | 2.8 nM |
| Cc1nnc(SCCCCSc2nsnc2C2CN3CCC2CC3)s1 (centres unmarked) [Compound 107, oxalate] | 1 nM |
| CCCCSc1nsnc1[C@@H]1CN2CCC[C@@H]1C2 [Compound 111, (5S,6S)-6-(3-butylthio-1,2,5-thiadiazol-4-yl)-1-azabicyclo[3.2.1]octane (+) L-tartrate] | 1 nM |
| CCCCSc1nsnc1[C@H]1CN2CCC[C@H]1C2 [Compound 112, (5R,6R)-6-(3-butylthio-1,2,5-thiadiazol-4-yl)-1-azabicyclo[3.2.1]octane (-) D-tartrate] | 0.6 nM |
| CCCSc1nsnc1[C@H]1CN2CCC[C@H]1C2 [Compound 113, (5R,6R)-6-(3-propylthio-1,2,5-thiadiazol-4-yl)-1-azabicyclo[3.2.1]octane (+) L-tartrate] | 0.89 nM |
| CCCSc1nsnc1[C@@H]1CN2CCC[C@@H]1C2 [Compound 114, (5S,6S)-6-(3-propylthio-1,2,5-thiadiazol-4-yl)-1-azabicyclo[3.2.1]octane (-) D-tartrate] | 0.45 nM |
| FC(F)(F)CCCSc1nsnc1[C@@H]1CN2CCC[C@@H]1C2 [Compound 130, (5S,6S)-6-(3-(4,4,4-trifluoro-1-butylthio)-1,2,5-thiadiazol-4-yl)-1-azabicyclo[3.2.1]octane oxalate] | 1.8 nM |
| CSc1nsnc1C1CN2CCC1CC2 (centres unmarked) [Compound 131, 3-(3-Methylthio-1,2,5-thiadiazol-4-yl)-1-azabicyclo[2.2.2]octane oxalate] | 2.8 nM |
